The source of these data is patent US20140249172A1 (3B Pharmaceuticals, Inc., priority 2012, published 2014).

“And” between values parts separate entries of the source, which are not always exact repeats. Equal entries are not always repeated. Structures can show the parent of a compound that is named as a salt.

The conditions of data set [1]: cited from earlier work.
Data set [2] can be described thus: Stability of Naltrexone HCl aqueous solution: potency/purity by USP <621> HPLC.
The nature of data set [3]: Blood levels of free naltrexone and free 6-beta-naltrexol following intranasal administration. Type of data set: in vivo, human. The conditions noted are these: for Blood Level 6-beta-Naltrexol-free / Naltrexone-free blood level: individual patients 1-8.
For data set [4] the following is noted: 0.5 mg/day oral daily for 4 weeks; 42 IBS patients; cited from earlier work.
For data set [5] the following is noted: in vivo, po; cited from earlier work.
The conditions of data set [6]: 4.5 mg/day for 12 weeks; cited from earlier work.
The conditions of data set [7]: oral, 0.4 mg or 1.0 mg; 90 patients; cited from earlier work.
The conditions of data set [8]: oral 0.002 mg/day with methadone; one patient; cited from earlier work.
The conditions of data set [9]: cited from earlier work. The source holds these as a separate data set.

As for `O=C1CC[C@@]2(O)[C@H]3Cc4ccc(O)c5c4[C@@]2(CCN3CC2CC2)[C@H]1O5` [Naltrexone HCl, Naltrexone hydrochloride], the solubility in water entry in data set [1] is “about 100 mg/mL”. Further, the Potency/Purity in data set [2] (Stability Test A, 2.00 mg/mL in sterile water, room temperature, ambient light, day 5) is listed as 99.89%; in data set [2] (Stability Test A, day 14), 104.12%; in [2] (Stability Test A, day 31), 95.94%; in data set [2] (Stability Test A, day 62) it was 107.00%; in data set [2] (Stability Test A, day 90) it was 107.09%; in data set [2] (Stability Test B, 2.00 mg/mL in sterile water, room temperature, ambient light, day 6), 102.04%. For the same molecule, the Potency/Purity in [2] (Stability Test B, day 15) amounted to 102.11%; in [2] (Stability Test B, day 33), 101.05%; in data set [2] (Stability Test B, day 61), 98.49%; in data set [2] (Stability Test B, day 90), 99.24%; in data set [2] (Stability Test B, day 121), 98.70%; in data set [2] (Stability Test B, day 152) it was 98.56%. The Potency/Purity in data set [2] (Stability Test B, day 180) is on record as 100.44%.

For the molecule `Oc1ccc2c3c1O[C@H]1[C@H](O)CC[C@@]4(O)[C@@H](C2)N(CC2CC2)CC[C@]314` [6-beta-Naltrexol, 6-beta-naltrexol], the “Blood Level 6-beta-Naltrexol-free, Avg.” value in data set [3] (average of 8 subjects, 15 min) was determined as 0.138 ng/mL; in [3] (average of 8 subjects, 30 min), 0.900 ng/mL; in data set [3] (average of 8 subjects, 60 min), 1.588 ng/mL; in data set [3] (average of 8 subjects, 120 min), 2.438 ng/mL. Further, the “Blood Level 6-beta-Naltrexol-free” value in data set [3] (15 min after intranasal 1 mL of Example 1 composition) was 0 ng/mL (7×) and 1.1 ng/mL; in data set [3] (30 min), 0 ng/mL (3×) and 1 ng/mL (2×) and 1.5 ng/mL and 1.9 ng/mL and 1.8 ng/mL; in [3] (60 min) it was 1.1 ng/mL and 1.9 ng/mL and 0 ng/mL (2×) and 1.2 ng/mL and 1.6 ng/mL and 2.9 ng/mL and 4 ng/mL; in data set [3] (120 min), 2.1 ng/mL (2×) and 2.7 ng/mL and 2 ng/mL and 1.8 ng/mL and 1 ng/mL and 3.5 ng/mL and 4.3 ng/mL.

On to `O=C1CC[C@@]2(O)[C@H]3Cc4ccc(O)c5c4[C@@]2(CCN3CC2CC2)[C@H]1O5` [Naltrexone, naltrexone], for which, in [3] (both sexes, human, in vivo, 2 mg, average of 8 subjects, 15 min after intranasal administration, read-out: Naltrexone-free blood level, Avg.), the concentration at 15 min worked out at 3.52 ng/mL. In addition, in data set [3] (both sexes, human, in vivo, 2 mg, average of 8 subjects, 30 min, read-out: Naltrexone-free blood level, Avg.), the concentration at 30 min is 3.66 ng/mL. Besides, in data set [3] (both sexes, human, in vivo, 2 mg, average of 8 subjects, 60 min, read-out: Naltrexone-free blood level, Avg.), the concentration at 60 min came out at 3.24 ng/mL. For the same molecule, the concentration at 120 min in data set [3] (both sexes, human, in vivo, 2 mg, average of 8 subjects, 120 min, read-out: Naltrexone-free blood level, Avg.) was found to be 1.94 ng/mL. Further, the Naltrexone-free blood level in data set [3] (15 min after intranasal 1 mL of Example 1 composition (2 mg/mL)) was 5.2 ng/mL and 1.4 ng/mL and 4.7 ng/mL and 4.6 ng/mL (2×) and 1.6 ng/mL and 2.1 ng/mL and 4 ng/mL; in [3] (30 min after intranasal 1 mL of Example 1 composition), 5.1 ng/mL and 1.7 ng/mL and 4.7 ng/mL and 3.8 ng/mL and 2.3 ng/mL and 5.5 ng/mL and 2.8 ng/mL and 3.4 ng/mL; in [3] (60 min after intranasal 1 mL of Example 1 composition), 4.6 ng/mL and 1.8 ng/mL (2×) and 4.5 ng/mL (2×) and 3.2 ng/mL and 2.6 ng/mL and 2.9 ng/mL; in data set [3] (120 min after intranasal 1 mL of Example 1 composition) it was 2.8 ng/mL and 1.1 ng/mL and 2.9 ng/mL and 2.1 ng/mL (2×) and 1.3 ng/mL and 1.4 ng/mL and 1.8 ng/mL. For the same molecule, the “patients with improved global assessment” value in data set [4] is 76%. Besides, the “reduction of fibromyalgia symptoms over placebo” value in data set [5] is reported as “greater than 30%”. Besides, the “CDAI scores, quality of life indicators, remission rates, inflammatory markers in serum” value in data set [6] was “Statistically significant improvements”. Besides, the “analgesic effect compared with placebo” value in data set [7] was “significant analgesic effects”. For the same molecule, the pain relief result in data set [8] is “improved pain relief”. Further, in [9] (oral administration, significant first pass metabolism), the oral bioavailability entry was “up to 40%”. For the same molecule, in [9] (single oral dose), the “time to peak plasma concentration” value is 1 to 2 h. In addition, the “solubility in water (in words)” value in data set [1] (in the form of a salt) is recorded as “freely soluble”.
